In ChEMBL document CHEMBL1201862, “PubChem BioAssay data set” (2004):
Activity calls are given as the source filed them.

Columns and labels:
[1] = biological target: T1, Replicative DNA helicase DnaB (Mycobacterium tuberculosis, UniProt P9WMR3); experiment: DnaB intein splicing inhibitors, dose response, biochemical, cell-free fluorescence (AID 449749); type: functional
T1 sequence (P9WMR3 whole entry): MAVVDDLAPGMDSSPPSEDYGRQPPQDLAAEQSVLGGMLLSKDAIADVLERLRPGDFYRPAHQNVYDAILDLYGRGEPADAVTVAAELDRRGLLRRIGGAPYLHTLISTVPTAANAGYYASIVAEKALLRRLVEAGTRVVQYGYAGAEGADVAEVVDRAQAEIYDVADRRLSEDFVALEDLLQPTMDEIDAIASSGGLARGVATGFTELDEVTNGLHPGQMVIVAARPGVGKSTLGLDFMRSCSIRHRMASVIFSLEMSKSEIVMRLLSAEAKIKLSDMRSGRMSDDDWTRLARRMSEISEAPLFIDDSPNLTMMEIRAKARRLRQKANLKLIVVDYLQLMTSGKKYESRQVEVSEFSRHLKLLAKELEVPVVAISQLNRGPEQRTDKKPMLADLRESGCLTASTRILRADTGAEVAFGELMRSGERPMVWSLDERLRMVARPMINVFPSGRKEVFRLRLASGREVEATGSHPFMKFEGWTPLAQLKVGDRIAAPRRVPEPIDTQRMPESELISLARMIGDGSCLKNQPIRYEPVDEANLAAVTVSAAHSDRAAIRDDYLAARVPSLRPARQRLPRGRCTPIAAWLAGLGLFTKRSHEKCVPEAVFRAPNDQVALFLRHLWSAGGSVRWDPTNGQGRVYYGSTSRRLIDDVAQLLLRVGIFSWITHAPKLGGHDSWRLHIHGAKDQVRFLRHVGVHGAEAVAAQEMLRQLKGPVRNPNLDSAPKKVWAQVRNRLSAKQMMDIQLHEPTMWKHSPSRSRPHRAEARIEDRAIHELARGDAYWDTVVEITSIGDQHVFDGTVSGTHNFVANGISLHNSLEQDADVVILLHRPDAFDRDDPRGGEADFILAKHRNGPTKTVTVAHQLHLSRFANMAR

[2] = biological target: T2, Protein RecA (Mycobacterium tuberculosis, UniProt P9WHJ3); experiment: Fluorescence Cell-Free Homogeneous Dose Retest to Identify Inhibitors of RecA-Intein Splicing Activity. [Related pubchem assays (depositor defined):AID2097, AID2223, AID489010, AID492950]; type: functional
T2 sequence (P9WHJ3 whole entry): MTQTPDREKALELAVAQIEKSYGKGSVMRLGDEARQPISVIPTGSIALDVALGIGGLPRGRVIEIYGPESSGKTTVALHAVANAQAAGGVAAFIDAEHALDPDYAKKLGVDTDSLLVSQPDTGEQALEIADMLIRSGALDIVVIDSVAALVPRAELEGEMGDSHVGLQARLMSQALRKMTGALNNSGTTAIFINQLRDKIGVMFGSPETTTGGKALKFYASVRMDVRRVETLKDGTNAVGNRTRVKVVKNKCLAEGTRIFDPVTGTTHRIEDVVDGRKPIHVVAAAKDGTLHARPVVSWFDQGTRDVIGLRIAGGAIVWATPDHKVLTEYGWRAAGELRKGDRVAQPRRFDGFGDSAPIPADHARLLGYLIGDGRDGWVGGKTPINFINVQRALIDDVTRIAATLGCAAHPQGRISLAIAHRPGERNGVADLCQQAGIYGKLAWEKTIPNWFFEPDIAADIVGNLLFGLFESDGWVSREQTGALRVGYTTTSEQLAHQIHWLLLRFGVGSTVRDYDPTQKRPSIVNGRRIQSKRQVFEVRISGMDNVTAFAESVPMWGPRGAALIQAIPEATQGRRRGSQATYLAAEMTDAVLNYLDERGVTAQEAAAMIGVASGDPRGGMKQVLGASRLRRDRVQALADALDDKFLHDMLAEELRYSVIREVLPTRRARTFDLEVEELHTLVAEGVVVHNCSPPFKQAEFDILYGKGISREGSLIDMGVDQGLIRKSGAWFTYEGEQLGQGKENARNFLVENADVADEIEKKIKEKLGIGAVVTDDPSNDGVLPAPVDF

[3] = test system: Streptococcus sp. 'group A'; experiment: growth inhibition of control SK(-) GAS strain, dose response, counter-screen for streptokinase expression inhibitor project, luminescence, kanamycin, BacTiterGlo, confirmation (AID 1900); type: functional, organism-based
[4] = test system: Streptococcus; experiment: Group A Streptococcus viability loss, dose response, counter-screen for streptokinase expression inhibitor project, luminescence, BacTiterGlo (AID 1915); type: functional, organism-based;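 further: potency for reduction of bacterial viability or growth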
[5] = biological target: T3, Heat shock factor protein 1 (Mus musculus, UniProt P38532); experiment: inhibition of MG132-induced HSE-luciferase signal, confirmation, cell-based, NIH3T3, luminescence, dose retest (AID 2382); type: functional;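 further: NIH3T3 fibroblasts with HSF1-driven luciferase reporter stressed by proteasome inhibitor MG132; luminescence from HSF1-driven luciferase expression after 8 hours of MG132 stress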
T3 sequence (P38532 whole entry): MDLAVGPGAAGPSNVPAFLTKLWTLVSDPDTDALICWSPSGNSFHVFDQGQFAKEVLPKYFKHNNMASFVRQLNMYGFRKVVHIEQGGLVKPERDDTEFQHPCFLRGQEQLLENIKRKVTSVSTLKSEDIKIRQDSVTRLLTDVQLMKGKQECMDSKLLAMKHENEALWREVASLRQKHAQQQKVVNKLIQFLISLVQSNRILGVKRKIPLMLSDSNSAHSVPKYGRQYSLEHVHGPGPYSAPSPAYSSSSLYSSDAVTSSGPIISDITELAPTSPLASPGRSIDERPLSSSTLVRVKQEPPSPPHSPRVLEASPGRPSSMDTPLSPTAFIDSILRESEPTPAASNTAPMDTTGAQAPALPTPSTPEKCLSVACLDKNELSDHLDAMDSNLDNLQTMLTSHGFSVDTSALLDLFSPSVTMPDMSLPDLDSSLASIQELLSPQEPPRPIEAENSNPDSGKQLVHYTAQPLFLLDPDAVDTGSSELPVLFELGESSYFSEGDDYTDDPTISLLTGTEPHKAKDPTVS

[6] = test system: INS1; experiment: beta cell apoptosis inhibitors, cytokine rescue, dose response, luminescence, retest (AID 449756); type: functional, cell-based; conditions: Rattus norvegicus;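 further: cell death triggered by IL-1 beta plus TNF-alpha plus IFN-gamma mixture; protective hits raise ATP signal compared with cytokine alone wells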
[7] = Luminescence Cell-Based Dose Retest to Confirm Inhibitors of Cancer Stem Cells. [Related pubchem assays (depositor defined):AID2717, AID2721]; type: functional; conditions: Homo sapiens
[8] = biological target: Cytochrome P450 2C19 (Homo sapiens, UniProt P33261); experiment: Cytochrome panel assay with activity outcomes. Panel member name: p450-cyp2c19 Compounds with AC50 equal or less than 10 uM are considered active; type: functional; conditions: read-out: AC50
Sequence of Cytochrome P450 2C19 (P33261 whole entry): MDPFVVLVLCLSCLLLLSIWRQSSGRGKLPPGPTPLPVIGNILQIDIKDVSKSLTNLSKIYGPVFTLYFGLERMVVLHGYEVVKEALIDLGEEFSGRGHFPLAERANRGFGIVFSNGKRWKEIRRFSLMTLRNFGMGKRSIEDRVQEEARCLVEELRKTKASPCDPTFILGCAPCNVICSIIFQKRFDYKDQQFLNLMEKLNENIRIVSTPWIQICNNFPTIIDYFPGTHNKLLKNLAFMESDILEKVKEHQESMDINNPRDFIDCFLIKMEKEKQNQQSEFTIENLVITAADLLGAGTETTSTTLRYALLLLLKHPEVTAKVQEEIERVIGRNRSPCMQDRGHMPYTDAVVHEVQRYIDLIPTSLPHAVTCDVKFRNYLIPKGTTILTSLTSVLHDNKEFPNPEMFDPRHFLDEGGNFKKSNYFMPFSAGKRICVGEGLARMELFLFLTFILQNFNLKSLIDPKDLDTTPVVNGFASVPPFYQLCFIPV

[9] = biological target: T4, Cytochrome P450 1A2 (Homo sapiens, UniProt P05177);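 further: PubChem cytochrome P450 panel assay, CYP1A2 panel member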
T4 sequence (P05177 whole entry): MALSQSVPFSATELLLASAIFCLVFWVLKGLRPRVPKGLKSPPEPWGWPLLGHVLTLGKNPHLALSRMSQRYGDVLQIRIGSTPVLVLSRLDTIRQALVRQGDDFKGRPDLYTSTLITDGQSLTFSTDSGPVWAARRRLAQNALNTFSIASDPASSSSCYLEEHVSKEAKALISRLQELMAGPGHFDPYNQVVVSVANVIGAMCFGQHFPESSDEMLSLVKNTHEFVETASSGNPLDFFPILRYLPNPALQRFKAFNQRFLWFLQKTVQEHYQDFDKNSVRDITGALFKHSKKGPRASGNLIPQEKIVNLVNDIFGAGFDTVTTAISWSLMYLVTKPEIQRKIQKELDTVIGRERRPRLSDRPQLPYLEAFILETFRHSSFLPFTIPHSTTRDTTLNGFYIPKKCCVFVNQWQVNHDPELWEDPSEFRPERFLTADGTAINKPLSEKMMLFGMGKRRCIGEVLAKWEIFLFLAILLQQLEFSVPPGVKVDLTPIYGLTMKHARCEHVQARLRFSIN

[10] = biological target: T5, Corticotropin-releasing factor receptor 2/Corticotropin-releasing factor-binding protein (Homo sapiens, UniProt P24387+Q13324); experiment: activators of CRF receptor 2 with binding protein – uHTS hits, confirmation (AID 602473); type: functional; conditions: read-out: EC50_Mean
T5 sequence (Q13324 whole entry): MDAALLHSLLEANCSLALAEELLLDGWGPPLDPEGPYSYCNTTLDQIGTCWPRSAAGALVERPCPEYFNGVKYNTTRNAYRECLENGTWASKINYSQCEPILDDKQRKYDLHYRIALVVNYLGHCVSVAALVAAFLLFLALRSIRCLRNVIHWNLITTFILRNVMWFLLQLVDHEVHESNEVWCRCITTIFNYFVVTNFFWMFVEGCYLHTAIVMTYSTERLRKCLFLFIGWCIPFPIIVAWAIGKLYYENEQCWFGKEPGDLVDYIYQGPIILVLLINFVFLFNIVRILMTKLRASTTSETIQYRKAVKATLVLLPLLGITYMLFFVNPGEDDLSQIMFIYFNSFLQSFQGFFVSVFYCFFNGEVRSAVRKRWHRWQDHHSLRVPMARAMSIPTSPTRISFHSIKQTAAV
T5 sequence (P24387 whole entry): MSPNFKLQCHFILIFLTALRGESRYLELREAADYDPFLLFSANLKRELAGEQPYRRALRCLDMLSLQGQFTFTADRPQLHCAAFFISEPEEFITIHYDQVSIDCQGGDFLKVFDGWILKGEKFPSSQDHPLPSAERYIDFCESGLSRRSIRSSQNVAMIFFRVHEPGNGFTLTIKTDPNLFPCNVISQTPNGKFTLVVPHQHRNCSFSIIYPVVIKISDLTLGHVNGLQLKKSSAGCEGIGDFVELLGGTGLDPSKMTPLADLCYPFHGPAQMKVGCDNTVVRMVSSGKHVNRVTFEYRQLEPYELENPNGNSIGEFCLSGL

| SMILES | AC50 [1] | EC50 [2] | EC50 [5] | other results |
| --- | --- | --- | --- | --- |
| c1ccc(CCNCc2cccs2)cc1 | > 380 µM (inactive) | > 380 µM (inactive) |  |  |
| Cc1nnc(SCC2=C(C(=O)O)N3C(=O)C(NC(=O)Cn4nc(C)c(Cl)c4C)C3SC2)s1 (stereo not given) |  |  |  | EC50 [3]: < 0.06 µM (active); EC50 [4]: 0.115 µM (active) |
| O=C(NCCCN1CCCC1=O)c1cccc(N2CCCC2=O)c1 |  |  | > 195 µM (not active) |  |
| COc1ccc(/C=C/C(=O)c2ccncc2)c2ccccc12 | > 120 µM (inactive) | 8.84 µM (active) |  | AC50 [6]: 26.7 µM (active); AC50 [7]: 11.8 µM (active) |
| Cc1ccc(C(c2c(C)n[nH]c2O)c2c(C)n[nH]c2O)cc1 | 0.36 µM (active) | 0.248 µM (active) |  |  |
| CCSc1nnc(-c2ccc(S(=O)(=O)NCc3cccs3)cc2)o1 |  |  | > 195 µM (not active) |  |
| Cc1ccc(Sc2oc(/C=N/n3cnnc3)cc2Br)cc1 | 4.42 µM (active) | 9.82 µM (active) |  |  |
| CC1Cc2cc(C(=O)C3=C(O)C(=O)N(CC4CCCO4)C3c3ccco3)ccc2O1 (stereo not given) |  |  | 69.9 µM (active) |  |
| CC(C)c1n[nH]c2c1C(c1ccc(OC(=O)c3ccco3)cc1)C(C#N)=C(N)O2 (stereo not given) | 6.85 µM (active) | 3.02 µM (active) |  |  |
| O=S1(=O)N[C@H](c2ccccc2)C[C@H](c2ccc(C(F)(F)F)cc2)O1 |  |  | > 195 µM (not active) |  |
| Cc1cc(NC(=O)COc2coc(CN3CCN(c4ccccc4F)CC3)cc2=O)no1 |  |  | > 195 µM (not active) |  |
| Clc1ccc(C2=C3CCCCn4c(-c5ccccc5)c[n+](c43)C2)cc1 | > 380 µM (inactive) | 50 µM (active) |  | AC50 [8]: 1.12 µM (inconclusive); AC50 [9]: 12.6 µM (inconclusive) |
| N#CCc1nn(-c2ccccc2)c2ncnc(N)c12 |  |  | 30.8 µM (active) |  |
| Cc1c(C)n(O)c2ccc3nonc3c12 | > 380 µM (inactive) | 3.67 µM (active) |  |  |
| CN(C)c1ccc(/C=N\Nc2nc(O)cc(-c3ccccc3)n2)cc1 |  |  | > 195 µM (not active) |  |
| COc1ccc(OC)c(-c2cc(-c3cccnc3)nc(N)c2C#N)c1 |  |  |  | AC50 [7]: 0.766 µM (active) |
| Cc1ccc(/N=C2\C(Cl)=C(O)OC2OC(=O)c2ccco2)cc1C (stereo not given) | 11.5 µM (active) | 8.65 µM (active) |  |  |
| Cc1ccccc1NS(=O)(=O)c1cc2c(cc1C)NC(=O)CO2 |  |  |  | EC50 [10]: > 53 µM (inactive) |
| CC1=NNC(=O)C1Cc1ccccc1C (stereo not given) | 0.538 µM (active) | 0.329 µM (active) |  |  |
| C=C(C)C(=O)NC1=NN(c2ccccc2)C(=O)C1 | 3.66 µM (active) | 37 µM (active) |  |  |
| Cc1cc(C)nc(-n2c(C)nc3cc(Cl)ccc3c2=O)c1 |  |  | 35.9 µM (active) |  |
| CCC1Sc2ccc(S(=O)(=O)Nc3ccc(OC)cc3)cc2NC1=O (stereo not given) |  |  | > 195 µM (not active) |  |
| CCOC(=O)c1ccc(NC(=O)N2CCN(S(C)(=O)=O)CC2)cc1 |  |  | > 195 µM (not active) |  |
| COC(=O)c1cccc(NC(S)=NCc2ccc(Cl)cc2)c1 |  |  |  | EC50 [3]: 13 µM (active); EC50 [4]: 15.8 µM (active) |
| O=C(Nc1cccnc1)c1coc(=O)c2ccccc12 |  |  | > 195 µM (not active) |  |
| CCc1c(C)sc(NC(=O)/C=C/c2ccc3c(c2)OCO3)c1C(=O)OC |  |  |  | AC50 [7]: 0.768 µM (active) |
| O=C(Nc1cccc2ncccc12)C(Cl)(Cl)Cl |  |  | > 195 µM (not active) |  |
| O=C(C[n+]1ccccc1)NNc1ccccc1 |  |  |  | AC50 [7]: 1.47 µM (active) |
| COc1ccc(Cl)cc1C(=O)NCC(=O)OCc1ccccc1 |  |  | > 195 µM (not active) |  |
